Results published in ChEMBL document CHEMBL1149049, “Increased feline cerebral blood flow induced by dehydroevodiamine hydrochloride from Evodia rutaecarpa” (J Nat Prod, 1994).
Calls of active or inactive are those of the source. The calls are words filed in the database; no cut-off is given here.

Test system: Felis catus
Assay: Increase in cerebral blood flow in anesthetized cat suprasylvian gyrus at 0.3 mg/kg, iv
Format: functional, organism-based
Design: dose 0.3 mg/kg

## C[n+]1c2n(c(=O)c3ccccc31)CCc1c-2[nH]c2ccccc12
  Activity: Active
